In patent US20040049072A1, “RXR modulators with improved pharmacologic profile” (priority 1999, published 2004):

Target: T1, RXRα:PPARγ heterodimer (Homo sapiens, UniProt P19793)
T1 construct: expressed in transfected cells; host or cells: CV-1 cells
T1 sequence (P19793 1-462): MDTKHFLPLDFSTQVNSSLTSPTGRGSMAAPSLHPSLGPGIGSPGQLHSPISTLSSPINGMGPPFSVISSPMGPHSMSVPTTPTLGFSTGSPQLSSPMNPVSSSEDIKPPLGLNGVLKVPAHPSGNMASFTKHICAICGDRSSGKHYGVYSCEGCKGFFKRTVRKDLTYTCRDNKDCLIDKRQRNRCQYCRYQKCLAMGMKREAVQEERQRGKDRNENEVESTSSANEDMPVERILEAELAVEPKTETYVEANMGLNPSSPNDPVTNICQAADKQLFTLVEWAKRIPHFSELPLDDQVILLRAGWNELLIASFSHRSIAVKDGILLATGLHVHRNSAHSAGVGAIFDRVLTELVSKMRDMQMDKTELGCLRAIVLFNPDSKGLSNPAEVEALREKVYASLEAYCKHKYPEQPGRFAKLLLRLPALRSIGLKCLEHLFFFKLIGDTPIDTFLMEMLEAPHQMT
T1 sequence (P37231 1-505 partner): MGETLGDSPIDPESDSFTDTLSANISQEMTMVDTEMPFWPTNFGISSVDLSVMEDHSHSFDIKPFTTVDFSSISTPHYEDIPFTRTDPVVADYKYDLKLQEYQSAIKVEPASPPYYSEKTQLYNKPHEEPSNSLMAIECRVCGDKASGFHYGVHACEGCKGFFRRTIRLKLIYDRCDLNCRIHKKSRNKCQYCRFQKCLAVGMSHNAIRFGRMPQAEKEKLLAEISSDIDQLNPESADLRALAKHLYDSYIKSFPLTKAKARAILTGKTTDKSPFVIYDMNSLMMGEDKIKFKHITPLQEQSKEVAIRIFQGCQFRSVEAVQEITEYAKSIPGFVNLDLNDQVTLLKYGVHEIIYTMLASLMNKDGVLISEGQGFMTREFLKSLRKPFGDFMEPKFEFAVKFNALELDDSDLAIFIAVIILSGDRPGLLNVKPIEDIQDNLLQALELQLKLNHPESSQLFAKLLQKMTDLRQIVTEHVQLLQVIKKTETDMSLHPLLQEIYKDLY
Assay: RXR:PPARγ heterodimer co-transfection assay in CV-1 cells
Type: cell-based
Conditions: alone
Experimental: For determination of agonist activity in the context of the RXR:RAR heterodimer or the RXR:PPARγ heterodimer, media containing compounds of the present invention in concentrations ranging from 10^−10 to 10^−5 M were added to the cells.
Compounds of the present invention were also tested for the ability to synergize with a PPARγ agonist in the context of an RXR heterodimer. […] Efficacy of the compounds of the present invention in the agonist and synergy assays was calculated as the maximum response obtained over the range of the dose response curve relative to the maximum response obtained by the reference agonist. Antagonist efficacy was determined as a function (%) of maximal inhibition.
To examine the effects of the compounds of the present invention on the transcriptional properties of the RXR:PPARγ, a heterodimer cotransfection assay as described above was employed.

SMILES | activity on the RXRα:PPARγ heterodimer, tested alone
COc1c(/C(C)=C/C=C/C(C)=C/C(=O)O)cc(C(C)(C)C)cc1C(C)(C)C [Compound L1] | both agonist and synergistic activity similar to that seen with LGD1069 and LG100268
CCOc1c(/C(C)=C/C=C/C(C)=C/C(=O)O)cc(C(C)(C)C)cc1C(C)(C)C [Compound L2] | partial agonist alone
CCCOc1c(/C(C)=C/C=C/C(C)=C/C(=O)O)cc(C(C)(C)C)cc1C(C)(C)C [Compound L3] | only weakly active alone
CCCCOc1c(/C(C)=C/C=C/C(C)=C/C(=O)O)cc(C(C)(C)C)cc1C(C)(C)C [Compound L4] | only weakly active alone
CCCCCCCOc1c(/C(C)=C/C=C/C(C)=C/C(=O)O)cc(C(C)(C)C)cc1C(C)(C)C [Compound L5] | not active as an agonist

Same assay, conditions: maximal response in presence of 100 nM BRL49653 relative to BRL49653 alone

SMILES | PPARγ CV-1 (%) Synergy [%]
COc1c(/C(C)=C/C=C/C(C)=C/C(=O)O)cc(C(C)(C)C)cc1C(C)(C)C [Compound L1] | 166
CCOc1c(/C(C)=C/C=C/C(C)=C/C(=O)O)cc(C(C)(C)C)cc1C(C)(C)C [Compound L2] | 69
CCCOc1c(/C(C)=C/C=C/C(C)=C/C(=O)O)cc(C(C)(C)C)cc1C(C)(C)C [Compound L3] | 25
CCCCOc1c(/C(C)=C/C=C/C(C)=C/C(=O)O)cc(C(C)(C)C)cc1C(C)(C)C [Compound L4] | 20
CCCCCCCOc1c(/C(C)=C/C=C/C(C)=C/C(=O)O)cc(C(C)(C)C)cc1C(C)(C)C [Compound L5] | 6

Same assay, conditions: maximal response in presence of 100 nM BRL relative to response of BRL alone

SMILES | RXRα:PPARγ Heterodimer Cotransfection Assay Synerg Efficacy (%)
COc1c(/C(C)=C/C=C/C(C)=C/C(=O)O)cc(C(C)(C)C)cc1C(C)(C)C [Compound L1] | 166
CCOc1c(/C(C)=C/C=C/C(C)=C/C(=O)O)cc(C(C)(C)C)cc1C(C)(C)C [Compound L2] | 69
CCCOc1c(/C(C)=C/C=C/C(C)=C/C(=O)O)cc(C(C)(C)C)cc1C(C)(C)C [Compound L3] | 25
CCCCOc1c(/C(C)=C/C=C/C(C)=C/C(=O)O)cc(C(C)(C)C)cc1C(C)(C)C [Compound L4] | 20
CCCCCCCOc1c(/C(C)=C/C=C/C(C)=C/C(=O)O)cc(C(C)(C)C)cc1C(C)(C)C [Compound L5] | 6

Same assay, conditions: maximal response relative to response of BRL 49653

SMILES | RXRα:PPARγ Heterodimer Cotransfection Assay Agonist Efficacy (%)
COc1c(/C(C)=C/C=C/C(C)=C/C(=O)O)cc(C(C)(C)C)cc1C(C)(C)C [Compound L1] | 59
CCOc1c(/C(C)=C/C=C/C(C)=C/C(=O)O)cc(C(C)(C)C)cc1C(C)(C)C [Compound L2] | 14
CCCOc1c(/C(C)=C/C=C/C(C)=C/C(=O)O)cc(C(C)(C)C)cc1C(C)(C)C [Compound L3] | 6
CCCCOc1c(/C(C)=C/C=C/C(C)=C/C(=O)O)cc(C(C)(C)C)cc1C(C)(C)C [Compound L4] | 3
CCCCCCCOc1c(/C(C)=C/C=C/C(C)=C/C(=O)O)cc(C(C)(C)C)cc1C(C)(C)C [Compound L5] | 4

Same assay, conditions: synergy mode, with BRL 49653

SMILES | activity on the RXRα:PPARγ heterodimer in combination with the PPARγ ligand
COc1c(/C(C)=C/C=C/C(C)=C/C(=O)O)cc(C(C)(C)C)cc1C(C)(C)C [Compound L1] | both agonist and synergistic activity similar to that seen with LGD1069 and LG100268
CCOc1c(/C(C)=C/C=C/C(C)=C/C(=O)O)cc(C(C)(C)C)cc1C(C)(C)C [Compound L2] | stronger activity in combination with the PPARγ ligand
CCCOc1c(/C(C)=C/C=C/C(C)=C/C(=O)O)cc(C(C)(C)C)cc1C(C)(C)C [Compound L3] | active in the presence of the PPARγ ligand
CCCCOc1c(/C(C)=C/C=C/C(C)=C/C(=O)O)cc(C(C)(C)C)cc1C(C)(C)C [Compound L4] | active in the presence of the PPARγ ligand
CCCCCCCOc1c(/C(C)=C/C=C/C(C)=C/C(=O)O)cc(C(C)(C)C)cc1C(C)(C)C [Compound L5] | not active as an agonist

Tested on: mice transgenic for the human apolipoprotein A-I gene
Assay: transgenic mice carrying the human apo A-I gene (HDL cholesterol, triglycerides)
Type: in vivo, mouse
Conditions: not given
Excerpt: Mice transgenic for the human apolipoprotein A-I gene (obtained from Jackson Laboratory) were used to evaluate PPARalpha mediated effects on HDL cholesterol. The mice were handled as described above for db/db mice, except that they were fed Purina 5001.

SMILES | triglycerides
COc1c(/C(C)=C/C=C/C(C)=C/C(=O)O)cc(C(C)(C)C)cc1C(C)(C)C [Compound L1] | substantially raise triglycerides
